Measured values as given in patent US12029768B2, “Probiotics useful for eradicating helicobacter pylori infection” (DACF S.r.l., priority 2018, dated 2024).
Like-named read-outs stand apart in the source and are kept apart here.

Test system: H. pylori
Experiment: Checkerboard method, adjuvant effect of probiotic supernatant on antibiotic MIC/MBC
Format: cell-based, Helicobacter pylori
Conditions: for MBC / MIC: Helicobacter pylori; for MBC: read-out: MBC towards the H. pylori strain; for MIC: read-out: MIC towards the H. pylori strain
[1] = probiotic supernatant (L. acidophilus La-14) added to antibiotic

Row | MIC (antibiotic alone) | MIC [1] | MIC with probiotic supernatant as fraction of the original MIC [1] | Structure (SMILES) | MBC (antibiotic alone) | MBC [1] | increase of antibiotic activity against H. pylori [1]
1 | 12 µg/mL | 0.125 µg/mL | 1/100 | CC[C@H]1OC(=O)[C@H](C)[C@@H](O[C@H]2C[C@@](C)(OC)[C@@H](O)[C@H](C)O2)[C@H](C)[C@@H](O[C@@H]2O[C@H](C)C[C@H](N(C)C)[C@H]2O)[C@](C)(OC)C[C@@H](C)C(=O)[C@H](C)[C@@H](O)[C@]1(C)O [Clarithromycin, clarithromycin] | 24 µg/mL | 0.25 µg/mL | 100 folds
2 | 0.25 µg/mL | 0.00025 µg/mL | 1/1000 | CC1(C)S[C@@H]2[C@H](NC(=O)[C@H](N)c3ccc(O)cc3)C(=O)N2[C@H]1C(=O)O [Amoxicillin, amoxicillin] | 0.5 µg/mL | 0.0005 µg/mL | 1000 folds
